Reference: ChEMBL document CHEMBL4507276 (2021)

Key:
[1] = target: T1, Mitogen-activated protein kinase kinase kinase kinase 2 (Homo sapiens) (UniProt Q12851); test: MAP4K2 Invitrogen selectivity data (BI); details: Compound concentration 3.0 uM
T1 sequence (whole entry): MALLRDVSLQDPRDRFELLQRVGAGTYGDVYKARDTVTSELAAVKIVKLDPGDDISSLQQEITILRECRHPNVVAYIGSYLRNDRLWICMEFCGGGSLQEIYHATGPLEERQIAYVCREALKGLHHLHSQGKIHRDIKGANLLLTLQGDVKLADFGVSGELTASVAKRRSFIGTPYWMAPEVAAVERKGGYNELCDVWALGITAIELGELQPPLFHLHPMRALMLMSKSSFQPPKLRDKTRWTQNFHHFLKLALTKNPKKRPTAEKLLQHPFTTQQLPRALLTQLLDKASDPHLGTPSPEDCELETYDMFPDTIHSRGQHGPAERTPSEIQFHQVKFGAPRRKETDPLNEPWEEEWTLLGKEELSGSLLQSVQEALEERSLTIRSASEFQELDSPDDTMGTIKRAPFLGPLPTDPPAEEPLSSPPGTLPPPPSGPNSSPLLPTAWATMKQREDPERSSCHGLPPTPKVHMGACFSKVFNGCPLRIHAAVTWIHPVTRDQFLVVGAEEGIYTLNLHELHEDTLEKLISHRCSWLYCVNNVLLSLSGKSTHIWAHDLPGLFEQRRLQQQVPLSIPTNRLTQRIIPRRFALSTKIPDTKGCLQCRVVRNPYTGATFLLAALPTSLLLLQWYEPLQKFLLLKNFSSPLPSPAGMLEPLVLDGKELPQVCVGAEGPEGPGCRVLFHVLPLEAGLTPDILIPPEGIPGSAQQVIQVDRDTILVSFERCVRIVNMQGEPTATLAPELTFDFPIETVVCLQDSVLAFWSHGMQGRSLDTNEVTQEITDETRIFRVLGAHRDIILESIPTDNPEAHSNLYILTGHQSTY

[2] = target: T2, Serine/threonine-protein kinase Nek2 (Homo sapiens) (UniProt P51955); test: NEK2 Invitrogen selectivity data (BI); details: Compound concentration 3.0 uM
T2 sequence (whole entry): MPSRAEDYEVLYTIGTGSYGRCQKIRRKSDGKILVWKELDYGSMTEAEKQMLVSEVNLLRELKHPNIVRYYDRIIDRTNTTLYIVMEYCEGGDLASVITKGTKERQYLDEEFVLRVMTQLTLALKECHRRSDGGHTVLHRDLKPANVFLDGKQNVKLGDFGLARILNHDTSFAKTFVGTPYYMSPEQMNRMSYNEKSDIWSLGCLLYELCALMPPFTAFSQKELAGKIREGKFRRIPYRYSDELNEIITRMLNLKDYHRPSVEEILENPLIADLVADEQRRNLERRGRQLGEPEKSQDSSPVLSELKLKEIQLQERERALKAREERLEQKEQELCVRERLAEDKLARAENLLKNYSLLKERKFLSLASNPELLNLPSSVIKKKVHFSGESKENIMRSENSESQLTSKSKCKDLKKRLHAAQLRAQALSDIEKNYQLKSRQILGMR

[3] = target: Alpha-2B adrenergic receptor (Homo sapiens) (UniProt P18089); test: ALPHA2BH_ANTAG Cerep selectivity data (BI); details: filed as antagonist, Compound concentration 20.0 uM
Alpha-2B adrenergic receptor (Homo sapiens), sequence (P18089 whole entry): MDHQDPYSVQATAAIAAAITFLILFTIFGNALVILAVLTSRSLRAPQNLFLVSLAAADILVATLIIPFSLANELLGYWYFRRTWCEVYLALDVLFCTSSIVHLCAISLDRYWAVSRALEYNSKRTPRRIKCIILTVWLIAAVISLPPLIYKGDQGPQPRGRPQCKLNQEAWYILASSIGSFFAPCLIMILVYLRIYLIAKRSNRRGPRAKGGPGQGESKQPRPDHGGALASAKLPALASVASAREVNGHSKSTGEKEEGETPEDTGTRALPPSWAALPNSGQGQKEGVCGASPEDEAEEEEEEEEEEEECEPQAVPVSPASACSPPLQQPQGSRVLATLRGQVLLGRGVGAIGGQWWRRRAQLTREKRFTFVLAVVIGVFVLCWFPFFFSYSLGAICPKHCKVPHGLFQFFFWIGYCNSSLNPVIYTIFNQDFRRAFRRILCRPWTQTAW

[4] = target: SRSF protein kinase 3 (Homo sapiens) (UniProt Q9UPE1); test: STK23 Invitrogen selectivity data (BI); details: Compound concentration 3.0 uM
SRSF protein kinase 3 (Homo sapiens), sequence (Q9UPE1 whole entry): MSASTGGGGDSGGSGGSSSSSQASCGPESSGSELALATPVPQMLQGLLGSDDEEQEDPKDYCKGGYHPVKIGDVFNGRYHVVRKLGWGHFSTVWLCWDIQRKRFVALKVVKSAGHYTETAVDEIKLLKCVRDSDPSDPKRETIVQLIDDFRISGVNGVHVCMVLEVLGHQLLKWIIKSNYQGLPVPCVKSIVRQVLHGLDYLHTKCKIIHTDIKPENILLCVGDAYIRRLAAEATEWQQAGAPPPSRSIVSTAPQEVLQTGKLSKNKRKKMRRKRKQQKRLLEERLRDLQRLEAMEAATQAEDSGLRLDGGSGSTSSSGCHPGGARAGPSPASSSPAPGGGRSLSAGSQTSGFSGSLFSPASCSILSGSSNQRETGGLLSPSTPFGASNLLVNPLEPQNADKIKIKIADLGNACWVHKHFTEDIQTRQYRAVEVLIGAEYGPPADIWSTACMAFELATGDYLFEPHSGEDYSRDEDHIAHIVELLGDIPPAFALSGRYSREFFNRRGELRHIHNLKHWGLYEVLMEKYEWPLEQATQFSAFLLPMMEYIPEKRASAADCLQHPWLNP

[5] = target: Mitogen-activated protein kinase 14 (Homo sapiens) (UniProt Q16539); test: MAPK14P38A Invitrogen selectivity data (BI); details: Compound concentration 3.0 uM
Mitogen-activated protein kinase 14 (Homo sapiens), sequence (Q16539 whole entry): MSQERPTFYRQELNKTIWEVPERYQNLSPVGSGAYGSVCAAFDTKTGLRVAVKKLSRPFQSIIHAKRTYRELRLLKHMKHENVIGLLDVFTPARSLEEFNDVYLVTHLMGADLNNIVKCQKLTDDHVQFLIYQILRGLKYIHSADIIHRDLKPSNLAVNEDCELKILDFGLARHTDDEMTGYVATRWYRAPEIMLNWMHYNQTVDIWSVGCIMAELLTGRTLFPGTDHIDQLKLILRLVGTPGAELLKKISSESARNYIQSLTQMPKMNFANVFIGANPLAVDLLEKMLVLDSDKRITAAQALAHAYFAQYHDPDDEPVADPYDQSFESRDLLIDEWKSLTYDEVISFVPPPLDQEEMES

[6] = target: Histamine H2 receptor (Homo sapiens) (UniProt P25021); test: H2/APT/HS Cerep selectivity data (BI); details: filed as antagonist, Compound concentration 20.0 uM
Histamine H2 receptor (Homo sapiens), sequence (P25021 whole entry): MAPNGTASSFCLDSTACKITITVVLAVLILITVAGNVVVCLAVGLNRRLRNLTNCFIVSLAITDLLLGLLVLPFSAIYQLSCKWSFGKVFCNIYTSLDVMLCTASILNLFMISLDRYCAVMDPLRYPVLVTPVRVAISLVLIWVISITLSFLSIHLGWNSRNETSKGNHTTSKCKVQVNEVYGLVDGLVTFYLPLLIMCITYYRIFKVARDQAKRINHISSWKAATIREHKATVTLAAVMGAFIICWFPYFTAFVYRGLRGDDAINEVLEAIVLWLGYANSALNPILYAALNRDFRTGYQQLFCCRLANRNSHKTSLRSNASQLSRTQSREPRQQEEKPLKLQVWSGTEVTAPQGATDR

[7] = target: T3, Serine/threonine-protein kinase Chk1 (Homo sapiens) (UniProt O14757); test: CHEK1 Invitrogen selectivity data (BI); details: Compound concentration 3.0 uM
T3 sequence (whole entry): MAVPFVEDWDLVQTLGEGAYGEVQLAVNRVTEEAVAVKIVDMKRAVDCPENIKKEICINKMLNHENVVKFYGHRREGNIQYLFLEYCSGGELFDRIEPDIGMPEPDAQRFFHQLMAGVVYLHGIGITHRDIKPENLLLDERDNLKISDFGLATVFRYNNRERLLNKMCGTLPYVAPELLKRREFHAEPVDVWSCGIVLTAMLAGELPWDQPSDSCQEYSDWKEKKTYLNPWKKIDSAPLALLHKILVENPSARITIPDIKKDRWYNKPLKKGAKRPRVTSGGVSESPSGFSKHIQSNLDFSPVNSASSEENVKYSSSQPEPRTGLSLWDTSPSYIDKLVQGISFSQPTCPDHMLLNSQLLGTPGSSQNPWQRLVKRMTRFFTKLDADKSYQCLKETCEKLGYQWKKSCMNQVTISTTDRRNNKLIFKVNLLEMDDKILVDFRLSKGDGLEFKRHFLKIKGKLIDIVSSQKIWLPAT

[8] = target: Ephrin type-A receptor 7 (Homo sapiens) (UniProt Q15375); test: EPHA7 Invitrogen selectivity data (BI); details: Compound concentration 3.0 uM
Ephrin type-A receptor 7 (Homo sapiens), sequence (Q15375 28-998 limits assumed): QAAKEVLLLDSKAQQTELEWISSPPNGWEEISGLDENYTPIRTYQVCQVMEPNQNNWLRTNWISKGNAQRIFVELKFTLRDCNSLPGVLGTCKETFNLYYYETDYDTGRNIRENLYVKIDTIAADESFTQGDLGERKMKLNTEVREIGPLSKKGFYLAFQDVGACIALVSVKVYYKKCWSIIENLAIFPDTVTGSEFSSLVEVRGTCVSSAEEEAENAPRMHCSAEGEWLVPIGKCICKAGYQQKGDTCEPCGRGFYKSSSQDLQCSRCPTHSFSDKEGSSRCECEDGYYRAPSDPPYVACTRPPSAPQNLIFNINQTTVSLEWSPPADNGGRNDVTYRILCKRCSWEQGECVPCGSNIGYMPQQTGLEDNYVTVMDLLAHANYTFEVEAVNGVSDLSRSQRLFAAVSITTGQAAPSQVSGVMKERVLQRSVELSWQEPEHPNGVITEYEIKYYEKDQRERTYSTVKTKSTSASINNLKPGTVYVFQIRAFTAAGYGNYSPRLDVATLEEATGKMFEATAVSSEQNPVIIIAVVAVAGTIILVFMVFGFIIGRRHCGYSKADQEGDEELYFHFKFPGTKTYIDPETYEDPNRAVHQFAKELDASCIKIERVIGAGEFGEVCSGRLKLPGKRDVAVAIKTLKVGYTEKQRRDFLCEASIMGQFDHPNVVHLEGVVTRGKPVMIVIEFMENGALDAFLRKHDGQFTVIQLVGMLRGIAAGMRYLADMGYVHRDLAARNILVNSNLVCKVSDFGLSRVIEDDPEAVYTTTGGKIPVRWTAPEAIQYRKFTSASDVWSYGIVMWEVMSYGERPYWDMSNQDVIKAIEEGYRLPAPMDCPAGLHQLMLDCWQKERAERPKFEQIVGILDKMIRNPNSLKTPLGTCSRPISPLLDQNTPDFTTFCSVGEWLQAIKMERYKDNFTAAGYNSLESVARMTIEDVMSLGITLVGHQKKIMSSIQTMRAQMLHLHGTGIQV

[9] = target: T4, Dual specificity mitogen-activated protein kinase kinase 3 (Homo sapiens) (UniProt P46734); test: MAP2K3 Invitrogen selectivity data (BI); details: Compound concentration 3.0 uM
T4 sequence (whole entry): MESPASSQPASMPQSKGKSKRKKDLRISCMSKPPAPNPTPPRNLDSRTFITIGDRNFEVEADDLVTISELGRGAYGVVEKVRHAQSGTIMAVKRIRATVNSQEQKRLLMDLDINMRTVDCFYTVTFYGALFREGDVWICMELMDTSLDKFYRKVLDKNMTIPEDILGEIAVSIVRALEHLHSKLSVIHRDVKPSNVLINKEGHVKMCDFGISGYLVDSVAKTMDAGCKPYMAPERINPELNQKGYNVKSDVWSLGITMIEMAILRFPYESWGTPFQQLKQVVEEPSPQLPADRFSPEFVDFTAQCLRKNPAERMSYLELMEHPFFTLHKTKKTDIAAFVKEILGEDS

[10] = target: Thyroid hormone receptor alpha (Rattus norvegicus) (UniProt P63059); test: TRTH_AGON Cerep selectivity data (BI); details: filed as agonist, Compound concentration 20.0 uM
[11] = target: Substance-K receptor (Homo sapiens) (UniProt P21452); test: NK2/H Cerep selectivity data (BI); details: Compound concentration 20.0 uM
[12] = target: Sodium- and chloride-dependent GABA transporter 1 (Rattus norvegicus) (UniProt P23978); test: GABATRANS/R Cerep selectivity data (BI); details: Compound concentration 20.0 uM
[13] = target: Protein-tyrosine kinase 6 (Homo sapiens) (UniProt Q13882); test: PTK6 Invitrogen selectivity data (BI); details: Compound concentration 3.0 uM
Protein-tyrosine kinase 6 (Homo sapiens), sequence (Q13882 whole entry, looked up): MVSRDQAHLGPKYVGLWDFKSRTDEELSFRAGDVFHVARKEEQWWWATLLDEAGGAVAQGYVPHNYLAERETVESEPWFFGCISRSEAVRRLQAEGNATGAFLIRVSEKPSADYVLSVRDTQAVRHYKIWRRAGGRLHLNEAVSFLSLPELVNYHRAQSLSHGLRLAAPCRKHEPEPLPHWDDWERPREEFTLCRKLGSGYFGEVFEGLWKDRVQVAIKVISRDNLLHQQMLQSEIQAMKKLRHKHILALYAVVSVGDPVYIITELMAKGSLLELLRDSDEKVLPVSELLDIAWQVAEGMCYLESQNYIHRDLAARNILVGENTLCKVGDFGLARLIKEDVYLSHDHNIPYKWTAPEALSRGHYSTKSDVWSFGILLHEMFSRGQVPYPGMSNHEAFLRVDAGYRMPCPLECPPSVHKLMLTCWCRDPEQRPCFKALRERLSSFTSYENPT

[14] = target: Histamine H1 receptor (Homo sapiens) (UniProt P35367); test: H1/H Eurofins-Panlabs selectivity data (BI); details: Compound concentration 10.0 uM
[15] = target: Mu-type opioid receptor (Homo sapiens) (UniProt P35372); test: MU/HU Eurofins-Panlabs selectivity data (BI); details: Compound concentration 10.0 uM
Mu-type opioid receptor (Homo sapiens), sequence (P35372 whole entry): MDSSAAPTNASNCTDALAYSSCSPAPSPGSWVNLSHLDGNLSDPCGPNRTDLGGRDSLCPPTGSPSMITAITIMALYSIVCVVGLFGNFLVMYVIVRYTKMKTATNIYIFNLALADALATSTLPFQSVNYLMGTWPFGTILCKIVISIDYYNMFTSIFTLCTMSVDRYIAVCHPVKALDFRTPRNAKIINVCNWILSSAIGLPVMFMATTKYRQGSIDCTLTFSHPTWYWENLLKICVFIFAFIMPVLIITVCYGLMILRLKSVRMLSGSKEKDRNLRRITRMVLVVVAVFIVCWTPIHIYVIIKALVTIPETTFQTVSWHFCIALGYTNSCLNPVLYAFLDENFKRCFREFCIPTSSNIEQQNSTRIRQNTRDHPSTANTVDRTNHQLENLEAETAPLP

[16] = target: Phosphatidylinositol 3-kinase regulatory subunit gamma (Bos taurus) (UniProt O46404); test: PROTKINP55 Cerep selectivity data (BI); details: Compound concentration 20.0 uM

Measured: residual activity

CN(C)C(=O)Cn1cc(-c2nc([C@@](C)(c3ccc(-c4cnc(N)nc4)cc3)C3CC3)no2)cn1 [BI 665915]
inactive: [1] 99.5% | [2] 88% | [3] 100% | [4] 96.5% | [5] 100% | [6] 96% | [7] 96% | [8] 78% | [9] 101% | [10] 129% | [11] 102% | [12] 96% | [13] 99.5% | [14] 103% | [15] 112% | [16] 98%
